Assay results as given in publication PMC6759796, “Integrating Pharmacokinetics Study, Network Analysis, and Experimental Validation to Uncover the Mechanism of Qiliqiangxin Capsule Against Chronic Heart Failure” (Frontiers in Pharmacology, 2019).
Values belong to the molecule of their own block, whether it stands above or below them.

Tests used:
[1] = Pharmacokinetics of 29 QLQX components in rat plasma by HPLC-MS/MS after intragastric QLQX
[2] = design: unit not given beside the values; conditions: rat, in vivo, po
in vivo = conditions: Sprague-Dawley, rat, po
[3] = Sprague-Dawley, rat, in vivo, po, […]
[4] = rat plasma, QLQX suspension […] intragastrically, mean ± SD
[5] = Sprague-Dawley, rat, plasma, po, […]

Molecule: CCN1C[C@]2(COC)[C@H](O)C[C@H](OC)[C@@]34[C@@H]5C[C@@]6(O)[C@H](OC(=O)c7ccccc7)[C@@H]5[C@@](OC(C)=O)([C@@H]([C@H](OC)[C@H]23)[C@@H]14)[C@@H](O)[C@@H]6OC [Aconitine]
Tmax [1, 3]: 0.33 h
half-life [1, 3]: 18.4 ± 5.44 h

Molecule: CC(C)(O)C1CCC(C)(C2C(O)CC3(C)C4CC(OC5OC(CO)C(O)C(O)C5O)C5C(C)(C)C(OC6OCC(O)C(O)C6O)CCC56CC46CCC23C)O1 (centres unmarked) [Astragaloside]
Tmax [1, 4]: 0.67 ± 0.00
t1/2 [1, 4]: 5.74 ± 0.78

Molecule: CCN1C[C@]2(COC)[C@H](O)C[C@H](OC)[C@@]34[C@@H]5C[C@@]6(O)[C@H](OC(=O)c7ccccc7)[C@@H]5[C@@](O)([C@@H]([C@H](OC)[C@H]23)[C@@H]14)[C@@H](O)[C@@H]6OC [Benzoylaconine]
Tmax [1, 4]: 1.00 ± 0.00
t1/2 [1, 4]: 18.63 ± 7.20

Molecule: COC[C@@]12CC[C@H](OC)[C@]34C([C@H]([C@H](OC)[C@H]13)[C@]1(O)[C@H]3[C@@H](OC(=O)c5ccccc5)[C@](O)(C[C@H]34)[C@@H](OC)[C@@H]1O)N(C)C2 [Benzoylhypaconine]
Tmax [1, 4]: 0.67 ± 0.00
t1/2 [1, 4]: 12.88 ± 3.47

Molecule: COC[C@]12CN(C)C3[C@@H]4[C@H](OC)[C@H]1[C@@]3([C@@H](OC)C[C@H]2O)[C@@H]1C[C@@]2(O)[C@H](OC(=O)c3ccccc3)[C@@H]1[C@]4(O)[C@@H](O)[C@@H]2OC [Benzoylmesaconine]
Tmax [1, 4]: 0.67 ± 0.11
t1/2 [1, 4]: 8.23 ± 2.02

Molecule: COc1ccc(-c2coc3cc(O[C@@H]4O[C@H](CO)[C@@H](O)[C@H](O)[C@H]4O)ccc3c2=O)cc1O [Calycosin-7-glucoside]
AUC0∼t [2]: 103.26 ± 47.63
AUC0∼∞ [2]: 120.71 ± 50.71

Molecule: O=C(O)[C@H](O)Cc1ccc(O)c(O)c1 [Danshensu]
AUC0∼t [2]: 290.92 ± 68.38
AUC0∼∞ [2]: 390.90 ± 66.50

Molecule: COc1ccc(-c2coc3cc(O)ccc3c2=O)cc1 [Formononetin]
Tmax [1, 5]: 0.17 h
half-life [1, 5]: 5.07 ± 2.13 h

Molecule: CC(C)=CCC[C@](C)(O[C@@H]1O[C@H](CO)[C@@H](O)[C@H](O)[C@H]1O)[C@H]1CC[C@]2(C)[C@@H]1[C@H](O)C[C@@H]1[C@@]3(C)CC[C@H](O[C@@H]4O[C@H](CO)[C@@H](O)[C@H](O)[C@H]4O)C(C)(C)[C@@H]3CC[C@]12C [Ginsenoside F2]
Tmax (in vivo): 0.67 h
half-life (in vivo): 6.23 ± 2.89 h

Tmax [1, 5]: 0.67 h
half-life [1, 5]: 9.16 ± 3.18 h
Molecule: CC(C)=CCC[C@](C)(O[C@@H]1O[C@H](CO[C@@H]2O[C@H](CO)[C@@H](O)[C@H](O)[C@H]2O)[C@@H](O)[C@H](O)[C@H]1O)[C@H]1CC[C@]2(C)[C@@H]1[C@H](O)C[C@@H]1[C@@]3(C)CC[C@H](O[C@@H]4O[C@H](CO)[C@@H](O)[C@H](O)[C@H]4O[C@@H]4O[C@H](CO)[C@@H](O)[C@H](O)[C@H]4O)C(C)(C)[C@@H]3CC[C@]12C [Ginsenoside Rb1]

Tmax [1, 5]: 1.5 ± 0.06 h
half-life [1, 5]: 10.1 ± 4.53 h
Molecule: CC(C)=CCC[C@](C)(O[C@@H]1O[C@H](CO[C@@H]2OC[C@H](O)[C@H](O)[C@H]2O)[C@@H](O)[C@H](O)[C@H]1O)[C@H]1CC[C@]2(C)[C@@H]1[C@H](O)C[C@@H]1[C@@]3(C)CC[C@H](O[C@@H]4O[C@H](CO)[C@@H](O)[C@H](O)[C@H]4O[C@@H]4O[C@H](CO)[C@@H](O)[C@H](O)[C@H]4O)C(C)(C)[C@@H]3CC[C@]12C [Ginsenoside Rb2]

Tmax [1, 5]: 0.67 h
half-life [1, 5]: 4.32 ± 2.1 h
Molecule: CC(C)=CCC[C@](C)(O[C@@H]1O[C@H](CO[C@@H]2O[C@@H](CO)[C@H](O)[C@H]2O)[C@@H](O)[C@H](O)[C@H]1O)[C@H]1CC[C@]2(C)[C@@H]1[C@H](O)C[C@@H]1[C@@]3(C)CC[C@H](O[C@@H]4O[C@H](CO)[C@@H](O)[C@H](O)[C@H]4O[C@@H]4O[C@H](CO)[C@@H](O)[C@H](O)[C@H]4O)C(C)(C)[C@@H]3CC[C@]12C [Ginsenoside Rc]

Tmax [1, 5]: 0.67 h
half-life [1, 5]: 5.9 ± 1.14 h
Molecule: CC(C)=CCC[C@](C)(O[C@@H]1O[C@H](CO)[C@@H](O)[C@H](O)[C@H]1O)[C@H]1CC[C@]2(C)[C@@H]1[C@H](O)C[C@@H]1[C@@]3(C)CC[C@H](O[C@@H]4O[C@H](CO)[C@@H](O)[C@H](O)[C@H]4O[C@@H]4O[C@H](CO)[C@@H](O)[C@H](O)[C@H]4O)C(C)(C)[C@@H]3CC[C@]12C [Ginsenoside Rd]

Tmax [1, 5]: 0.67 ± 0.06 h
half-life [1, 5]: 7.33 ± 3.45 h
Molecule: CC(C)=CCC[C@](C)(O[C@@H]1O[C@H](CO)[C@@H](O)[C@H](O)[C@H]1O)[C@H]1CC[C@]2(C)[C@@H]1[C@H](O)C[C@@H]1[C@@]3(C)CC[C@H](O)C(C)(C)[C@@H]3[C@@H](O[C@@H]3O[C@H](CO)[C@@H](O)[C@H](O)[C@H]3O[C@@H]3O[C@@H](C)[C@H](O)[C@@H](O)[C@H]3O)C[C@]12C [Ginsenoside Re]

Molecule: CC(C)=CCC[C@](C)(O)[C@H]1CC[C@]2(C)[C@@H]1[C@H](O)C[C@@H]1[C@@]3(C)CC[C@H](O)C(C)(C)[C@@H]3[C@@H](O[C@@H]3O[C@H](CO)[C@@H](O)[C@H](O)[C@H]3O[C@@H]3O[C@H](CO)[C@@H](O)[C@H](O)[C@H]3O)C[C@]12C [Ginsenoside Rf]
Tmax (in vivo): 0.67 h
half-life (in vivo): 6.12 ± 3.53 h

Tmax [1, 5]: 0.67 h
half-life [1, 5]: 8.69 ± 3.17 h
Molecule: CC(C)=CCC[C@](C)(O[C@@H]1O[C@H](CO)[C@@H](O)[C@H](O)[C@H]1O)[C@H]1CC[C@]2(C)[C@@H]1[C@H](O)C[C@@H]1[C@@]3(C)CC[C@H](O)C(C)(C)[C@@H]3[C@@H](O[C@@H]3O[C@H](CO)[C@@H](O)[C@H](O)[C@H]3O)C[C@]12C [Ginsenoside Rg1]

Molecule: CC(C)=CCC[C@](C)(O)[C@H]1CC[C@]2(C)[C@@H]1[C@H](O)C[C@@H]1[C@@]3(C)CC[C@H](O[C@@H]4O[C@H](CO)[C@@H](O)[C@H](O)[C@H]4O[C@@H]4O[C@H](CO)[C@@H](O)[C@H](O)[C@H]4O)C(C)(C)[C@@H]3CC[C@]12C [Ginsenoside Rg3]
AUC0∼t [2]: 67.13 ± 27.93
AUC0∼∞ [2]: 89.81 ± 34.43

Molecule: COc1ccc([C@@H]2CC(=O)c3c(O)cc(O[C@@H]4O[C@H](CO[C@@H]5O[C@@H](C)[C@H](O)[C@@H](O)[C@H]5O)[C@@H](O)[C@H](O)[C@H]4O)cc3O2)cc1O [Hesperidin]
AUC0∼t [2]: 154.32 ± 66.50
AUC0∼∞ [2]: 187.77 ± 34.98

Molecule: COC[C@@]12CC[C@H](OC)[C@]34C(C([C@H](OC)[C@H]13)[C@]1(OC(C)=O)[C@H]3[C@@H](OC(=O)c5ccccc5)[C@](O)(C[C@H]34)[C@@H](OC)[C@@H]1O)N(C)C2 [Hypaconitine]
Tmax (in vivo): 0.33 h
half-life (in vivo): 8.01 ± 2.39 h

Tmax [1, 5]: 0.67 h
half-life [1, 5]: 4.8 ± 0.89 h
Molecule: O=C(/C=C/c1ccc(O)c2c1[C@H](C(=O)O)[C@@H](c1ccc(O)c(O)c1)O2)O[C@H](Cc1ccc(O)c(O)c1)C(=O)O [Lithospermic acid]

Molecule: COC[C@]12CN(C)[C@@H]3[C@@H]4[C@H](OC)[C@H]1[C@@]3([C@@H](OC)C[C@H]2O)[C@@H]1C[C@@]2(O)[C@H](OC(=O)c3ccccc3)[C@@H]1[C@]4(OC(C)=O)[C@@H](O)[C@@H]2OC [Mesaconitine]
Tmax [1, 4]: 0.17 ± 0.06
t1/2 [1, 4]: 6.23 ± 1.23

Tmax [1, 5]: 0.67 h
half-life [1, 5]: 8.38 ± 1.02 h
Molecule: O=C(O)c1ccc(O)c(O)c1 [Protocatechuic acid]

Tmax [1, 5]: 0.67 h
half-life [1, 5]: 5.04 ± 0.98 h
Molecule: O=c1c(O)c(-c2ccc(O)c(O)c2)oc2cc(O)cc(O)c12 [Quercetin]

Tmax (in vivo): 0.67 h
half-life (in vivo): 5.28 ± 1.35 h
Molecule: O=C(/C=C/c1ccc(O)c(O)c1)O[C@H](Cc1ccc(O)c(O)c1)C(=O)O [Rosmarinic acid]

Molecule: C[C@@H]1O[C@@H](OC[C@H]2O[C@@H](Oc3c(-c4ccc(O)c(O)c4)oc4cc(O)cc(O)c4c3=O)[C@H](O)[C@@H](O)[C@@H]2O)[C@H](O)[C@H](O)[C@H]1O [Rutin]
Tmax (in vivo): 0.33 h
half-life (in vivo): 5.33 ± 1.27 h

Tmax (in vivo): 0.17 h
half-life (in vivo): 7.5 ± 4.92 h
Molecule: O=C(/C=C/c1ccc(O)c(O)c1/C=C/c1ccc(O)c(O)c1)O[C@H](Cc1ccc(O)c(O)c1)C(=O)O [Salvianolic acid A]

Molecule: COc1cc(/C=C/C(=O)OCC[N+](C)(C)C)cc(OC)c1O.O=S(=O)([O-])O [Sinapine bisulfate]
AUC0∼t [2]: 3.98 ± 1.21
AUC0∼∞ [2]: 8.76 ± 2.85

Molecule: Salvianolic acid B
AUC0∼t [2]: 818.47 ± 249.00
AUC0∼∞ [2]: 980.47 ± 112.07
